How the values were obtained:
[1] = target: T1, SMARCA4-HiBiT HeLa cells (protein which is expressed from the SMARCA4 gene) (Homo sapiens, UniProt P51532); assay: SMARCA4 degradation assay (HiBiT-fusion HeLa cell line, 24 h, luminescence); type: cell-based
T1 construct: protein which is expressed from the SMARCA2 and SMARCA4 genes; host or cells: HeLa (SMARCA4-HiBiT engineered line)
Description: (§1) SMARCA2 and SMARCA4 Degradation Assay
(§2) Degradation of protein which is expressed from the SMARCA2 and SMARCA4 genes was monitored using engineered HiBiT-fusion HeLa cell lines from Promega. In brief, 384-well white opaque plates (Greiner) were seeded with SMARCA2-HiBiT or SMARCA4-HiBiT HeLa cells at 8,000 cells/well and incubated overnight at 37° C. to allow cell attachment. After overnight incubation, test compounds were added in a 10-point dilution series (typically 10 μM to 300 pM) using a TECAN D300e Digital Dispenser, and plates were subsequently incubated for 24 hours at 37° C. 24-hours post-treatment, protein levels were quantified with the addition of HiBiT lytic buffer, LgBiT protein, and HiBiT substrate, according to manufacturer's specifications. Plates were incubated on an orbital plate shaker for 10 minutes at room temperature. Resulting luminescent values were read out using a ClarioStar plate reader and used to construct dose-response curves and calculation of degradation DC50s (GraphPad Prism).
(§3) Activity of the tested compounds is provided in Table 4 below as follows: A=DC50<0.050 μM; B=0.05 μM<DC50<0.50 μM; C=<0.5 μM<DC50<5.0 μM; D=DC50>5.0 μM. For SMARCA2 and SMARCA4 degradation activity @1 μM, +++=>70%; ++=30-70%; +=<30%.

[2] = target: T2, SMARCA2-HiBiT HeLa cells (protein which is expressed from the SMARCA2 gene) (Homo sapiens, UniProt P51531); assay: SMARCA2 degradation assay (HiBiT-fusion HeLa cell line, 24 h, luminescence); type: cell-based
T2 construct: protein which is expressed from the SMARCA2 and SMARCA4 genes; host or cells: HeLa (SMARCA2-HiBiT engineered line)
Description: as §1, §2, §3

T1 sequence (P51532 whole entry, the tested form may be a part): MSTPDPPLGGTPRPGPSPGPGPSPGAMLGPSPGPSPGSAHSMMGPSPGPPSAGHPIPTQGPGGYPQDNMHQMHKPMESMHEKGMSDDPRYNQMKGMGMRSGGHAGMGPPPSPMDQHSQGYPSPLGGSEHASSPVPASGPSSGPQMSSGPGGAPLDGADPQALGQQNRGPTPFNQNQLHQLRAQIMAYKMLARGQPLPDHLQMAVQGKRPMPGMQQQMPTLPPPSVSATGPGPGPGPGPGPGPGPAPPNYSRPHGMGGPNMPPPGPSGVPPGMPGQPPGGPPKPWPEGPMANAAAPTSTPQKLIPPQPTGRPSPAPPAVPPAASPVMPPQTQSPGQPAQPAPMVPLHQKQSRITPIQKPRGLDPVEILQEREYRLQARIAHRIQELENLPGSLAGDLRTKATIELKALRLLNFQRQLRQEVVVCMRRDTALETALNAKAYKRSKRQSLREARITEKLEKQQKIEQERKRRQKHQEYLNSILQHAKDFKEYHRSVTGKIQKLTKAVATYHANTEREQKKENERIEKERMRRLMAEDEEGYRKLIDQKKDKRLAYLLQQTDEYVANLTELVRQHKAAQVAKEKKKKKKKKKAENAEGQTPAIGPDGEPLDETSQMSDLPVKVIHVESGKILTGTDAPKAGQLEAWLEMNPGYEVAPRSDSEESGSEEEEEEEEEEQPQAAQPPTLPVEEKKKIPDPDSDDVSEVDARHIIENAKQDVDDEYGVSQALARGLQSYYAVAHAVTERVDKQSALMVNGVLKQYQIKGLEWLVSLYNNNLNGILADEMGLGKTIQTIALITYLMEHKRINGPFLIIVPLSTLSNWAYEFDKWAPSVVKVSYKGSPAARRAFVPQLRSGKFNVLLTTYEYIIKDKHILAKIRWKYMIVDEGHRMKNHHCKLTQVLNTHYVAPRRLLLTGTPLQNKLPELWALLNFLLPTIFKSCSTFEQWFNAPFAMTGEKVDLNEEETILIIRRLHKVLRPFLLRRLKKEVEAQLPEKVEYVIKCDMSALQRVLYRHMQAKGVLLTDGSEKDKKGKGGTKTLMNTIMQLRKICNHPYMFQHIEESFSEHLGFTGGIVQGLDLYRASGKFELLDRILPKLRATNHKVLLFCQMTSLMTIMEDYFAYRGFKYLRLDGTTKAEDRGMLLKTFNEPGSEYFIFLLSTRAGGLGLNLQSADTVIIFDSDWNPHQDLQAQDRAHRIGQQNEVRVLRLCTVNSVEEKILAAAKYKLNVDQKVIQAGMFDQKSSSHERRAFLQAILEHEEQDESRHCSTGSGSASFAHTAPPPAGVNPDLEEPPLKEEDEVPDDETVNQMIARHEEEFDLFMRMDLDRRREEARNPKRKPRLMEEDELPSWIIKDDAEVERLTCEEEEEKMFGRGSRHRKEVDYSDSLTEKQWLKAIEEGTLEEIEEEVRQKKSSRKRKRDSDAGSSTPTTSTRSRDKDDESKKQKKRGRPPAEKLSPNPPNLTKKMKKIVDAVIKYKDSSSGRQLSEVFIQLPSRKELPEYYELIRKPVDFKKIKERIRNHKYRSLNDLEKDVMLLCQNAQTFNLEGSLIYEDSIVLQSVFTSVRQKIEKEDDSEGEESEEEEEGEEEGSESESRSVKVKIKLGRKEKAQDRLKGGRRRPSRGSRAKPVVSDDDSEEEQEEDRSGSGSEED
T2 sequence (P51531 whole entry, the tested form may be a part): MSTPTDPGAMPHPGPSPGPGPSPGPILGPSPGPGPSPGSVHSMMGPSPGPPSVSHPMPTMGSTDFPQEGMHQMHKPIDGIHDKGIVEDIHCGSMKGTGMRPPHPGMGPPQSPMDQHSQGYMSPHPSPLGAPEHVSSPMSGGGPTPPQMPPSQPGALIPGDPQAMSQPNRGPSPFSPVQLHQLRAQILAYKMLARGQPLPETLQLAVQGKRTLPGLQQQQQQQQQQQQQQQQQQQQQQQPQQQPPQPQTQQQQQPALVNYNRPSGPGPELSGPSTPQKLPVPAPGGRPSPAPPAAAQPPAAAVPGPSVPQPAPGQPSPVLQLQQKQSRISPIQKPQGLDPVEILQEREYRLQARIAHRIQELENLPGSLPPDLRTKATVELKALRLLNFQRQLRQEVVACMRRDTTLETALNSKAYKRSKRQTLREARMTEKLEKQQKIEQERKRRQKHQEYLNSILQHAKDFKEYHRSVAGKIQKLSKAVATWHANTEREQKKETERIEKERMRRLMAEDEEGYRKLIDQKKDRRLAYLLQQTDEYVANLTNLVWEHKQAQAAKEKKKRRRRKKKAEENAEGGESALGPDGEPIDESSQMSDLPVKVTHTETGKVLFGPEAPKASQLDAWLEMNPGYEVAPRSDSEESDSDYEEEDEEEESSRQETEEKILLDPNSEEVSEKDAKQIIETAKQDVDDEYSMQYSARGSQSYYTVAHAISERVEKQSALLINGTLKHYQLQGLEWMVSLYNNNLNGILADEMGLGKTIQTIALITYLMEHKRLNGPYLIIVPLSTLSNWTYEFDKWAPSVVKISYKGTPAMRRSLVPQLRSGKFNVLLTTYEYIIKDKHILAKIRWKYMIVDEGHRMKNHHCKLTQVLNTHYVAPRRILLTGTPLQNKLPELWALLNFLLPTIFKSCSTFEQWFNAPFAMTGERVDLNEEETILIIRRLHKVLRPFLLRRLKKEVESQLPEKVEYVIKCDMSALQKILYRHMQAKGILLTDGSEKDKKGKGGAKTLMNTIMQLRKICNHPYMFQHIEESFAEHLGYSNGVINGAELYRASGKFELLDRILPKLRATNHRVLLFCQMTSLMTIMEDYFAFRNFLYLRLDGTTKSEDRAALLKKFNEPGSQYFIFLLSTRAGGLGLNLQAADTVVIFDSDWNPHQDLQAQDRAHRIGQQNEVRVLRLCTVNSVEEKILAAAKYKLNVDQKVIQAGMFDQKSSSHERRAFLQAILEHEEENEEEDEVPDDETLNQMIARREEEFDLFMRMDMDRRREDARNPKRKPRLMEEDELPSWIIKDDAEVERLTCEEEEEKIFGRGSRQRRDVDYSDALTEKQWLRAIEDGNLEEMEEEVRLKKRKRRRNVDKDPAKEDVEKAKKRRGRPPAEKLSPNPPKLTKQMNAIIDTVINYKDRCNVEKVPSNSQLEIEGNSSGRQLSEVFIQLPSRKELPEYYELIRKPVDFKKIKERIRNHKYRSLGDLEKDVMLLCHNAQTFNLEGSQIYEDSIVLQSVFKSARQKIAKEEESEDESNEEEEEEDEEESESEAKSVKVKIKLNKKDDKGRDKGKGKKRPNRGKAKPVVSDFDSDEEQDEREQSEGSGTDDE

SMILES	DC50 [1] [nM]	inhibition at 1 µM ([1]; @ 1 μM) [%]	DC50 [2] [nM]	SMARCA2 % Degradation @ 1 μM ([2]; @ 1 μM)	inhibition at 1 µM ([1]; 1 μM) [%]	SMARCA2 % Degradation @ 1 μM ([2]; 1 μM)
COC/C=C/c1nccc(N2CCN(c3cc(-c4ccccc4O)nnc3N)CC[C@H]2C)n1 [Compound P-170, o-(5-{(R)-4-[2-(3-methoxy-1-propenyl)-4-pyrimidinyl]-5-methyl-1,4-diazepan-1-yl}-6-amino-3-pyridazinyl)phenol]	500 to 5000	30 to 70	50 to 500	++ (++=30-70%)		
C[C@@H]1CCN(c2cc(-c3ccccc3O)nnc2N)CCN1c1ccnc(C#CCN(C)CCF)n1 [Compound P-154, o-{5-[(R)-4-(2-{3-[(2-fluoroethyl)-N-methylamino]-1-propynyl}-4-pyrimidinyl)-5-methyl-1,4-diazepan-1-yl]-6-amino-3-pyridaziny1} phenol]	50 to 500	< 30	50 to 500	++ (++=30-70%)		
C[C@@H]1CN(CC#Cc2nccc(N3CCCN(c4cc(-c5ccccc5O)nnc4N)CC3)n2)C[C@H](c2ccccc2)O1 [Compound P-380, 0-{5-[4-(2-{3-[(2R,6S)-2-methyl-6-phenyl-4-morpholinyl]-1-propynyl}-4-pyrimidinyl)-1,4-diazepan-1-yl]-6-amino-3-pyridazinyl}phenol]	500 to 5000		500 to 5000		< 30	++ (++=30-70%)
C[C@@H](O)C#Cc1nccc(N2CCCN(c3cc(-c4ccccc4O)nnc3N)CC2)n1 [Compound P-322, 0-[5-(4-{2-[(R)-3-hydroxy-1-butynyl]-4-pyrimidinyl}-1,4-diazepan-1-yl)-6-amino-3-pyridazinyl]phenol]	50 to 500	30 to 70	50 to 500	++ (++=30-70%)		
C[C@@H]1CN(c2cc(-c3ccccc3O)nnc2N)CCN1c1ccnc(C#CCNC(=O)c2cc3ncccn3n2)n1 [Compound P-50, (R)-N-(3-(4-(4-(3-amino-6-(2-hydroxyphenyl)pyridazin-4-yl)-2-methylpiperazin-1-yl)pyrimidin-2-yl)prop-2-yn-1-yl)pyrazolo[1,5-a]pyrimidine-2-carboxamide]	< 50	30 to 70	< 50	++ (++=30-70%)		
C[C@@H]1CCN(c2cc(-c3ccccc3O)nnc2N)CCN1c1ccnc(C#CCO)c1 [Compound P-397, 0-(5-{(R)-4-[2-(3-hydroxy-1-propynyl)-4-pyridyl]-5-methyl-1,4-diazepan-1-yl}-6-amino-3-pyridazinyl)phenol]	500 to 5000		50 to 500		30 to 70	++ (++=30-70%)
C[C@@H]1CCN(c2cc(-c3ccccc3O)nnc2N)CCN1c1ccnc(C#C[C@H](O)C2CC2)n1 [Compound P-266, 0-{5-[(R)-4-{2-[(R)-3-cyclopropyl-3-hydroxy-1-propynyl]-4-pyrimidinyl}-5-methyl-1,4-diazepan-1-yl]-6-amino-3-pyridaziny1} phenol]	50 to 500	30 to 70	50 to 500	+++ (+++=>70%)		
Nc1nnc(-c2ccccc2O)cc1N1C[C@H]2C[C@@H]1CN2c1ccnc(C#CCNC(=O)c2cc3ncccn3n2)n1 [Compound P-25, N-(3-(4-((1R,4R)-5-(3-amino-6-(2-hydroxyphenyl)pyridazin-4-yl)-2,5-diazabicyclo[2.2.1]heptan-2-yl)pyrimidin-2-yl)prop-2-yn-1-yl)pyrazolo[1,5-a]pyrimidine-2-carboxamide]	50 to 500	> 70	50 to 500	+++ (+++=>70%)		
CC1(NCC#Cc2nccc(N3CCCN(c4cc(-c5ccccc5O)nnc4N)CC3)n2)COC1 [Compound P-278, 0-[6-amino-5-(4-{2-[3-(3-methyl-3-oxetanylamino)-1-propynyl]-4-pyrimidinyl}-1,4-diazepan-1-yl)-3-pyridazinyl]phenol]	50 to 500	30 to 70	50 to 500	++ (++=30-70%)		
C[C@H]1CCN(c2cc(-c3ccccc3O)nnc2N)CCN1c1ccnc(C#CCN(C)CC(F)(F)F)n1 [Compound P-217, o-{5-[(S)-4-(2-{3-[N-methyl(2,2,2-trifluoroethyl)amino]-1-propynyl}-4-pyrimidinyl)-5-methyl-1,4-diazepan-1-yl]-6-amino-3-pyridaziny1}phenol]	50 to 500	< 30	50 to 500	++ (++=30-70%)		
Nc1nnc(-c2ccccc2O)cc1N1CC2CCC(C1)N2c1ccnc(C#CCNc2ncco2)n1 [Compound P-106, 2-(6-amino-5-(8-(2-(3-(oxazol-2-ylamino)prop-1-yn-1-yl)pyrimidin-4-yl)-3,8-diazabicyclo[3.2.1]octan-3-yl)pyridazin-3-yl)phenol]	500 to 5000	30 to 70	500 to 5000	++ (++=30-70%)		
C[C@@H]1CN(c2ccnc(C#CCNC(=O)c3cc4ncccn4n3)n2)C[C@@H](C)N1c1cc(-c2ccccc2O)nnc1N [Compound P-82, N-(3-(4-((3R,5R)-4-(3-amino-6-(2-hydroxyphenyl)pyridazin-4-yl)-3,5-dimethylpiperazin-1-yl)pyrimidin-2-yl)prop-2-yn-1-yl)pyrazolo[1,5-a]pyrimidine-2-carboxamide]	500 to 5000	< 30	500 to 5000	+ (+=<30%)		
Nc1nnc(-c2ccccc2O)cc1N1CCN(c2ccnc(C#CCNC(=O)c3ccn(C(F)F)n3)n2)CC1 [Compound P-10, N-[3-(4-{4-[3-amino-6-(2-hydroxyphenyl)pyridazin-4-yl]piperazin-1-yl}pyrimidin-2-yl)prop-2-yn-1-y1]-1-(difluoromethyl)-1H-pyrazole-3-carboxamide]	< 50	30 to 70	50 to 500	++ (++=30-70%)		
Nc1nnc(-c2ccccc2O)cc1N1CCC2(CCCN(c3ccnc(C#CCNC(=O)c4cc5n(n4)CCC5)n3)C2)CC1 [Compound P-129, N-(3-(4-(9-(3-amino-6-(2-hydroxyphenyl)pyridazin-4-yl)-2,9-diazaspiro[5.5]undecan-2-yl)pyrimidin-2-yl)prop-2-yn-1-yl)-5,6-dihydro-4H-pyrrolo[1,2-b]pyrazole-2-carboxamide]	50 to 500	30 to 70	50 to 500	++ (++=30-70%)		
CC(C#Cc1nccc(N2C3CCC2CN(c2cc(-c4ccccc4O)nnc2N)C3)n1)NC(=O)c1cc2ncccn2n1 (stereo not shown) [Compound P-97, N-(4-(4-(3-(3-amino-6-(2-hydroxyphenyl)pyridazin-4-yl)-3,8-diazabicyclo[3.2.1]octan-8-yl)pyrimidin-2-yl)but-3-yn-2-yl)pyrazolo|1,5-a|pyrimidine-2-carboxamide]	50 to 500	30 to 70	50 to 500	++ (++=30-70%)		
Cc1cc(C(=O)NCC#Cc2nccc(N3CCN(c4cc(-c5ccccc5O)nnc4N)CC3)n2)no1 [Compound P-1, N-[3-(4-{4-[3-amino-6-(2-hydroxyphenyl)pyridazin-4-yl]piperazin-1-yl}pyrimidin-2-yl)prop-2-yn-1-yl]-5-methyl-1,2-oxazole-3-carboxamide]	50 to 500	30 to 70	50 to 500	++ (++=30-70%)		

— patent US20260265238A1, “COMPOUNDS AND PHARMACEUTICAL COMPOSITIONS THAT DEGRADE SWI/SNF-RELATED MATRIX-ASSOCIATED ACTIN-DEPENDENT REGULATOR OF CHROMATIN SUBFAMILY A” (Plexium, Inc., priority 2023, published 2026)
